Values of other authors, collected in patent US20160143876A1, “MAINTENANCE THERAPY REGIME/REGIMEN FOR THE TREATMENT OF ACNE” (GALDERMA RESEARCH & DEVELOPMENT, priority 2008, published 2016).

Tests used:
[1] = applied as monotherapy
acne = conditions: in vivo

## COc1ccc(-c2ccc3cc(C(=O)O)ccc3c2)cc1C12CC3CC(CC(C3)C1)C2 [Adapalene, 6-[3-(1-adamantyl)-4-methoxyphenyl]-2-naphtoic acid]
[1]
  Tolerability profile compared to other topical retinoids: more favorable tolerability profile

## CC1=C(/C=C/C(C)=C/C=C/C(C)=C\C(=O)O)C(C)(C)CCC1 [isotretinoin]
acne
  Patients who relapse after treatment: up to 21%
